Experimental findings from a melting point compilation (Tetko et al.; mined from patent text by program, amines drawn as free bases though some values may be those of a salt) are described below.

As usually defined, the melting point is the temperature of the solid-liquid transition. `CN(C)n1c(=O)c2ccccc2n(C)c1=O` returned a melting point of 154 °C.

With `CC(=O)NCCCCC(=O)OC1c2ccccc2C(=O)N1c1ccc2ccc(Cl)nc2n1` (configuration not stated), the melting point was determined as 185 °C.

`CC(C)(C)c1cc(-c2nn(Cc3ccc([N+](=O)[O-])cc3)c3ncccc23)cc(C(C)(C)C)c1O` returned a melting point of 143 to 145 °C.

In turn, `O=C(O)CSCC(Cc1ccccc1)NCCS` (configuration not stated) gave a melting point of 201 °C.

Compound `CCNc1cncc(C#N)c1` gave a melting point of 110 °C.

Regarding `CCCCN(CCCC)CCCOc1ccc(S(=O)(=O)c2c(C3CCCCC3)cn3ccccc23)cc1`, the melting point lay within 130 to 131 °C.

In turn, `CCCCNC(=O)C(C)Oc1ccc(COc2ccc(Cl)cc2)cc1` (configuration not stated) showed a melting point of 98 °C.

For `O=C(O)CCCCCCCCn1cc(-c2ccccc2)c(-c2ccccc2)nc1=O`, the melting point lay in the range of 120 to 123 °C.

Take `O=C(CBr)c1ccc2oc3ccc(C(=O)CBr)cc3c(=O)c2c1`: the melting point fell in the range of 209 to 210 °C.

`O=C(O)c1ccc(OCCCc2cc(-c3ccc(C(F)(F)F)cc3)no2)cc1` registered a melting point of 221 to 222 °C.

In the case of `Cc1oc(-c2ccc(C(F)(F)F)cc2)nc1COc1ccc(S(=O)(=O)Cl)cc1`, the melting point was in the range of 90 to 93 °C.

In the case of `CC(C)(C)OC(=O)NC(CC(O)CNC(Cc1ccccc1)C(O)CNC(=O)OCc1ccccc1)c1ccccc1` (configuration not stated), the melting point was 120 to 121 °C.

Take `O=C1CCC2CCCC3CC(=O)N1C23` (configuration not stated): the melting point lay in the range of 118 to 120 °C.

`OCc1ccc(-c2cccc(-c3cn([C@H]4CN5CCC4CC5)nn3)c2)s1`: the melting point came out at 176 °C.

In turn, `C=CC1(F)CN(C2CCCC2)c2nc(Nc3ccc(C(=O)NC4CCCNC4)cc3OC)ncc2N(C)C1=O` (configuration not stated) displayed a melting point of 169 to 172 °C.

The compound `CCCn1c([N+](=O)[O-])cnc1-c1cnc(N)s1` returned a melting point of 234 to 236 °C.

On to `O=c1c2c(Cl)cc(Cl)cc2n(Cc2ccccc2)c(=O)n1Cc1ccccc1`, for which the melting point lay in the range of 104 to 106 °C.

In turn, `NC(=O)c1sc(Oc2ccc3c(c2)OCO3)c2c1CCc1cnoc1-2` yielded a melting point of 167 to 169 °C.

Regarding `CC(=O)OCCc1ccc2c(c1)Cc1ccccc1O2`, the melting point lay within 62 to 64 °C.

Compound `CCOC(=O)C1(C(=O)N(Cc2ccccc2)Cc2ccccc2)CC(=O)N(C(C)c2ccccc2)C1` (configuration not stated) showed a melting point of 135 to 137 °C.

In the case of `CON1CCC2(CC1)C(O)=C(c1c(C)cc(C)cc1C)C(=O)N2O`, the melting point lay in the range of 152 to 154 °C.

As to `CN(C)C(c1cccc(F)c1)C1CCC(C=O)CC1` (configuration not stated), the melting point was 40 to 43 °C.

As for `O=C(O)COc1c(-c2cccc(Cl)c2)cc(C(=O)NCCCCc2ccccc2)cc1-c1cccc(C(F)(F)F)c1`, the melting point was 187 to 190 °C.

Compound `CCOC(=O)/C=C1/CO[C@](C)([C@H]2CC[C@H]3[C@@H](O[Si](C)(C)C(C)(C)C)CCC[C@@]32C)C1` displayed a melting point of 101 °C.

For `C=CC(=O)NC(C)c1ccc(Cl)cc1` (configuration not stated), the melting point fell in the range of 103 to 104 °C.

As to `Cc1ccncc1C(O)c1ccc2cc(C(=O)OC(C)C)ccc2c1` (configuration not stated), the melting point was in the range of 180 to 183 °C.

For `COC(=O)Cc1ccc(CNC(=O)C2Cc3ccccc3N2S(=O)(=O)c2ccc(-c3cccc(C(F)(F)F)c3)cc2)c(Cl)c1` (configuration not stated), the melting point was 124 to 126 °C.

`CCC1c2ncn(CC)c2CCN1C(=S)NC(C)C` (configuration not stated): the melting point stood at 196 °C.

Compound `CC(C)OC(=O)N1CCN(c2ccc3oc(-c4ccc(S(C)(=O)=O)cc4F)nc3c2)CC1` gave a melting point of 231 to 234 °C.

Regarding `CC(CN1CCOCC1)C(=O)c1ccc(C(C)(C)C)cc1` (configuration not stated), the melting point was 71 to 73 °C.

On to `CC(C)NC(=S)Nc1cccc(NC(=O)Nc2ccc(Cl)cc2)c1`, for which the melting point was 197 to 198 °C.

Compound `CNC(Cc1ccc(Cl)nc1)=C(N)C(=O)C(F)(F)F` showed a melting point of 114 °C.

`CCNC(=S)Nc1ccc2[nH]c3cnc(C(=O)OC(C)C)c(CC)c3c2c1` came in with a melting point of 234 to 236 °C.

`Nc1nc(Cl)nc2c1ncn2C1C=CCCC1` (configuration not stated) registered a melting point of 195 to 197 °C.

With `COC(=O)c1ccc(O)c(C(=O)CC(=O)c2cc(C)ccc2OC)c1`, the melting point lay in the range of 145 to 147 °C.

Regarding `FC(F)(F)c1ccc(-c2nocc2CCl)cc1`, the melting point was 84 to 85 °C.

`Cc1ccc(-c2cc(O)c3[nH]c(=O)ccc3c2)c(C)n1` displayed a melting point of 276 to 277 °C.

For `Oc1ccc(N2CCN(c3nccs3)CC2)cc1`, the melting point was found to be 170 °C.

Compound `CN(C(N)=O)[C@@H]1c2cc(C#N)ccc2OC(C)(C)[C@H]1O` (relative stereo) displayed a melting point of 135 to 137 °C.

Regarding `CCOC(=O)C1=C(COCc2nnn(CCNS(C)(=O)=O)n2)NC(C)=C(C(=O)OC)C1c1cccc(Cl)c1Cl` (configuration not stated), the melting point was 245 to 247 °C.

Take `CCOc1ccc2nc(NC(=O)CN3CCN(C(=O)CCCCCCC(=O)N(O)C(C)=O)CC3)sc2c1`: the melting point lay in the range of 98 to 103 °C.

Compound `COc1cc(OC)cc(-c2ncoc2-c2ccc(OC)c(O)c2F)c1` gave a melting point of 168 to 172 °C.

`CC(C)=Nn1c(S)nnc1-n1cccn1` registered a melting point of 132 to 138 °C.

On to `O=C(CCC(=O)c1ccc(F)cc1)Nc1ccc(-n2nc(C(F)(F)F)cc2C(F)(F)F)cc1`, for which the melting point lay in the range of 156 to 158 °C.

The compound `CC(=O)NC[C@H]1CN(c2ccc(C3(F)CCNCC3)c(F)c2)C(=O)O1` had a melting point of 163 to 165 °C.

In the case of `COC(=O)c1ccccc1NC(=O)c1ccc(OC)cc1`, the melting point lay in the range of 122 to 124 °C.

As to `c1ccc(C2OC3(CCOCC3)c3ccccc32)cc1` (configuration not stated), the melting point is 132 to 134 °C.

For `O=C(NO)c1ccc2c(c1)CN(C(=O)c1ccc3[nH]ccc3c1)CC2`, the melting point came out at 252 °C.

`CCCCCCN(Cc1cccnc1)C(Nc1cc(C(C)(C)C)c(O)c(C(C)(C)C)c1)=C1C(=O)OC(C)(C)OC1=O` displayed a melting point of 134 to 136 °C.

`O=C1c2ccccc2C(=O)C1(O)c1ccccc1O` registered a melting point of 155 to 159 °C.

The compound `CCCOC(=O)c1cc(-n2c(OC)nc(C(F)(F)F)cc2=O)c(F)cc1Cl` returned a melting point of 55 to 57 °C.

For the compound `C[C@@H](n1ccn(-c2ccc(OC(F)(F)C(F)F)cc2)c1=O)[C@@]1(c2ccc(F)cc2F)CO1`, the melting point lay in the range of 117 to 118 °C.

`CCN(Cc1ccc2nc(C)[nH]c(=O)c2c1)c1ccc(C(=O)NCc2nccn2Cc2ccccc2)cc1` yielded a melting point of 217 to 221 °C.

`O=C1CCC(=NNc2ccc(I)cc2)c2ncccc2N1` displayed a melting point of 204 to 205 °C.

As for `CCc1cc(-c2ccc(F)cc2)c(O)cc1OC(CC)Oc1cc(NC(=O)CCCC(=O)N2CCOCC2)ccc1CCC(=O)O` (configuration not stated), the melting point is 78 to 80 °C.

As for `CC(C)(C)c1cc(-c2nnc(S(C)(=O)=O)s2)cc(C(C)(C)C)c1O`, the melting point is 156 °C.

As to `COC(=O)c1c(Cl)cc(Cl)c2ccc(Cl)cc12`, the melting point lay within 113 to 115 °C.

`C=C(C)Cn1c(S)nc2c(cnn2C)c1=O` had a melting point of 158 to 160 °C.

Take `CC(C(=O)O)c1ccc(N2C(=O)C3CCCCC3C2=O)cc1` (configuration not stated): the melting point lay within 224 to 226 °C.

`COc1c(Cl)cc(C(=O)Nc2ccc(F)cc2)c(Nc2ccccc2)c1Cl` registered a melting point of 220 °C.

The compound `O=c1[nH]c2sc(I)nc2c2ccccc12` returned a melting point greater than 250 °C.

In turn, `CSc1cnc2ccccc2c1` came in with a melting point of 40 °C.
